Laboratory results from patent US11090285B2, “Treatment of circadian rhythm disorders” (Vanda Pharmaceuticals Inc., priority 2013, dated 2021).

Key:
patients with Non-24 = experiment: SET Study, Phase III randomized, double-masked, placebo-controlled; assay type: in vivo, human
Protocol: Specifically, patients were orally administered 20 mg tasimelteon per day for at least 12 weeks prior to re-estimating tau. Patients were selected for randomization or open label based on baseline tau estimates. Drug was administered at about 1 hour prior to target sleep time, as determined by patients based on a 9 hour nighttime sleep period.
The SET study was an 84 patient randomized, double-masked, placebo-controlled study in patients with Non-24. The primary endpoints for this study were Entrainment of the melatonin (aMT6s) rhythm to the 24-hour clock and Clinical Response as measured by Entrainment plus a score of greater than or equal to 3 on the following N24CRS:
The SET study also assessed a number of secondary endpoints including Entrainment of cortisol rhythm and a broad range of clinical sleep and wake parameters. These parameters included improvement in the total nighttime sleep in the worst 25% of nights (LQ-nTST), decrease in the total daytime sleep duration in the worst 25% of days (UQ-dTSD) and midpoint of sleep timing (MoST) which is derived from a combination of the sleep reported for both nighttime and daytime. CGI-C is a seven-point rating scale of global functioning with lower scores indicating larger improvements.

CYP1A2 and CYP3A4 = experiment: Isoenzymes involved in tasimelteon metabolism; assay type: in vitro ADME
Non-24 patients [1] = experiment: Entrainment by peak aMT6s level and beta blocker use (clinical studies); assay type: in vivo, human
Protocol: Results of clinical study also show a strong correlation between endogenous melatonin and efficacy of tasimelteon in entraining patients to a 24 hour circadian rhythm. The following table (Table 3A) compares the peak aMT6s levels in the 24 entrained and 23 non-entrained patients.
Data from these studies currently available also indicate that beta blocker therapy is […] related to efficacy of tasimelteon, i.e., patients receiving beta blocker therapy were less likely to become entrained than patients who were not.

[2] = Solubility and pH of saturated solution; assay type: physicochemical
Protocol: (§1) Tasimelteon is a white to off-white powder with a melting point of about 78° C. […] Tasimelteon has 2-4 times greater affinity for MT2R relative to MT1R.

MT2R = biological target: T1, MT2R (Homo sapiens, UniProt P49286); experiment: Melatonin receptor affinity, MT2R; assay type: binding
T1 sequence (P49286 1-362): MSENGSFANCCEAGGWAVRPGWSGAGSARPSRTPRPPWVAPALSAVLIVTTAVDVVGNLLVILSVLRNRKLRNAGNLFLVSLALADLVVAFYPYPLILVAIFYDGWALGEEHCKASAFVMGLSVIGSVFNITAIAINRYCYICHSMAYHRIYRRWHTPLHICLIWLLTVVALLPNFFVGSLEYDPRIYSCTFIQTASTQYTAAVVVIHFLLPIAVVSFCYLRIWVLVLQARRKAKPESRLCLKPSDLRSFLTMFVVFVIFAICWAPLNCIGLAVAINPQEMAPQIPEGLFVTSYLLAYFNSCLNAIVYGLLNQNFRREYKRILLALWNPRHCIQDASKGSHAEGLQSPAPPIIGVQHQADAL
Protocol: as §1

[3] = Pharmacokinetics on co-administration of tasimelteon and fluvoxamine; assay type: in vivo, human
Protocol: Twenty-four healthy male or female subjects between the ages of 18 and 55 years of age (inclusive) who were non-smokers with a body mass index (BMI) of ≥18 and ≤35 kg/m2 participated in this open-label, single-sequence study conducted at one site. On day 1, subjects were administered […] of tasimelteon.

[4] = system: blind individuals with Non-24; experiment: RESET Study, randomized withdrawal, maintenance of effect; assay type: in vivo, human
Protocol: Patients were treated with tasimelteon for at least twelve weeks during an open-label run-in phase during the SET Study. Patients who responded to tasimelteon treatment during the run-in phase were then randomized to receive either placebo or tasimelteon (20 mg/day) for 2 months.
The primary endpoint of the RESET Study was the maintenance of effect as measured by entrainment of the melatonin (aMT6s) rhythm.
The RESET study also assessed a number of secondary endpoints including maintenance of entrainment of the cortisol rhythm and a range of sleep and wake parameters including LQ-nTST (total nighttime sleep in the worst 25% of nights), UQ-dTSD (total daytime sleep duration in the worst 25% of days) and MoST (midpoint of sleep timing from both nighttime and daytime sleep).

Non-24 patients [5] = experiment: Phase advance of circadian rhythm on initiation of treatment; assay type: in vivo, human; details: upon initiation of treatment
Protocol: For example, treatment of a patient who has a target bedtime of 10:00 p.m. and a target wake time of 7:00 a.m., treatment initiation can be on a day when urinary aMT6s acrophase is predicted to occur at 3:30 am. However, treatment with tasimelteon can conveniently be initiated on a day on which melatonin acrophase, e.g., using calculated urinary aMT6s acrophase, is predicted to be between about 5.5 hours before target wake time and 2.5 hours after target wake time. Without intending to be bound to a particular theory, this flexibility is apparently owing to the unusually marked effects of such active ingredient on circadian rhythm upon initiation of treatment (e.g., phase advance by as much as about 5 hours on initial treatment).

[6] = 20 mg/day, SET secondary endpoint
[7] = 20 mg/day, sensitivity analysis
[8] = co-administration of fluvoxamine vs tasimelteon alone
[9] = RESET, higher number indicates improvement

- isoenzymes also involved in metabolism (CYP1A2 and CYP3A4): CYP1A1, CYP2D6, CYP2C19, and CYP2C9
- major isoenzymes involved in the metabolism (CYP1A2 and CYP3A4): CYP1A2 and CYP3A4
- effect of pH on aqueous solubility [2]: practically unaffected by pH
- native pH of a saturated solution in water [2]: 8.5
- solubility in organic solvents ([2]; 95% ethanol, methanol, acetonitrile, ethyl acetate, isopropanol, PEG-300 and PEG-400): very soluble or freely soluble
- solubility in water ([2]; water): only slightly soluble
- greater affinity for MT2R relative to MT1R (MT2R): 2-4 times
- CL/F ([3]; Day 1, 5.667 mg tasimelteon alone): 107 ± 555 mL/min
- CL/F ([3]; Day 8, 5.667 mg tasimelteon + 50 mg fluvoxamine): 189 ± 155 mL/min
- AUC (inf), Geometric Mean Ratio ([3]; Day 8 vs Day 1): 653.36%
- CL/F, Geometric Mean Ratio ([3]; Day 8 vs Day 1): 15.31%
- Cmax, Geometric Mean Ratio ([3]; Day 8 vs Day 1): 232.74%
- t½, Geometric Mean Ratio ([3]; Day 8 vs Day 1): 211.82%
- increase of AUC0-inf [3, 8]: approximately 7 fold
- increase of Cmax [3, 8]: approximately 2 fold
SMILES: CCC(=O)NC[C@@H]1C[C@H]1c1cccc2c1CCO2 (relative stereo) [Tasimelteon, trans-N-[[2-(2,3-dihydrobenzofuran-4-yl)cycloprop-1yl]methyl]propanamide]
- Entrainment (aMT6s) (patients with Non-24; 20 mg/day oral, SET primary endpoint): 20.0%
- LQ-nTST (LS mean minutes) (patients with Non-24; 20 mg/day, SET): 57.0 min
- MoST (LS mean minutes) (patients with Non-24; 20 mg/day, SET): 34.8 min
- Clinical Response (Entrainment + N24CRS >=3) (patients with Non-24; 20 mg/day, SET primary endpoint): 23.7%
- Entrainment (cortisol) (patients with Non-24; [6]): 17.5%
- N24CRS (LS mean minutes) (patients with Non-24; [6]): 1.77 min
- UQ-dTSD (LS mean minutes) (patients with Non-24; 20 mg/day, SET, smaller numbers indicate improvement): -46.2 min
- Clinical Response (Entrainment + N24CRS >=2) (patients with Non-24; [7]): 28.9%
- N24CRS >=2 (patients with Non-24; [7]): 57.9%
- N24CRS >=3 (patients with Non-24; [7]): 28.9%
- CGI-C (LS mean minutes) (patients with Non-24; 20 mg/day, smaller numbers indicate improvement): 2.6 min
- safety and tolerability (patients with Non-24; SET study): safe and well tolerated
- percentage of entrained patients (patients with Non-24; on drug at least two circadian cycles, not on beta blockers, tau<24.7 hours): approximately 85%
- LQ-nTST and UQ-dTSD >=90 min (patients with Non-24; only subjects with significant sleep and nap problems at baseline): 23.8%
- LQ-nTST and UQ-dTSD >=45 min (patients with Non-24; sensitivity analysis): 31.6%
- Entrained patients (Non-24 patients [1]; Peak aMT6s <1500 ng/hr): 12 (41%)
- Non-entrained patients (Non-24 patients [1]; Peak aMT6s <1500 ng/hr): 17 (59%)
- Entrained patients (Non-24 patients [1]; Peak aMT6s <2000 ng/hr): 13 (38%)
- Non-entrained patients (Non-24 patients [1]; Peak aMT6s <2000 ng/hr): 21 (62%)
- Entrained patients (Non-24 patients [1]; Peak aMT6s ≥1500 ng/hr): 12 (67%)
- Non-entrained patients (Non-24 patients [1]; Peak aMT6s ≥1500 ng/hr): 6 (33%)
- Entrained patients (Non-24 patients [1]; Peak aMT6s ≥2000 ng/hr): 11 (85%)
- Non-entrained patients (Non-24 patients [1]; Peak aMT6s ≥2000 ng/hr): 2 (15%)
- Entrained patients (Non-24 patients [1]; Peak aMT6s: All (47 patients)): 24 (51%)
- Non-entrained patients (Non-24 patients [1]; Peak aMT6s: All (47 patients)): 23 (49%)
- Entrained patients (Non-24 patients [1]; Taking Beta Blocker: No): 24
- Non-entrained patients (Non-24 patients [1]; Taking Beta Blocker: No): 19
- Entrained patients (Non-24 patients [1]; Taking Beta Blocker: Yes): 0
- Non-entrained patients (Non-24 patients [1]; Taking Beta Blocker: Yes): 4
- patients who responded to therapy (Non-24 patients [1]; baseline aMT6s excretion rate >2000 ng/hr): Eleven of thirteen
- maintenance of entrainment (cortisol) ([4]; 20 mg/day, RESET): 80.0%
- Maintenance of entrainment (aMT6s) ([4]; 20 mg/day, RESET primary endpoint): 90.0%
- LQ-nTST (LS mean minutes) [4, 9]: -6.6 min
- MoST (LS mean minutes) [4, 9]: 19.8 min
- UQ-dTSD (LS mean minutes) ([4]; RESET, lower number indicates improvement): -9.6 min
- LQ-nTST (LS mean minutes), Difference ([4]; tasimelteon vs placebo): 67.2 min
- MoST (LS mean minutes), Difference ([4]; tasimelteon vs placebo): 36.0 min
- UQ-dTSD (LS mean minutes), Difference ([4]; tasimelteon vs placebo): -59.4 min
- maintenance of entrainment (cortisol), Difference ([4]; tasimelteon vs placebo): 60.0%
- phase advance on initial treatment (Non-24 patients [5]): ≤ 5 h
